Reference: patent US12391685B2, “Inhibitors of RNA-guided nuclease target binding and uses thereof” (THE BROAD INSTITUTE, INC., priority 2018, dated 2025)
Converted amounts (≈) assume the structure as drawn. “Also recorded” adds a separate entry of the source.

How the values were obtained:
[1] = molecular target: T1, dCas9-based transcription-activation complex (Streptococcus pyogenes serotype M1, UniProt Q99ZW2, D10A, form not given); assay: dCas9-based transcription activation of HBG1 in HEK293FT cells (RT-qPCR); assay type: cell-based, S. pyogenes; details: 20 μM
T1 construct: "dSpCas9|Feng Zhang lab|NA"; The MS2-p65-HSF1(-GFP) effector is a separate chain recruited through MS2 aptamers in the sgRNA
Protocol: Transcription activation experiments and quantitative RT-PCR analyses. HEK293FT cells were maintained in high glucose DMEM with glutamax (Life Technologies) and supplemented with 10% FBS (Life Technologies), 1% penicillin-streptomycin (Life Technologies) and 1 mM sodium pyruvate (Life Technologies). For transcription activation experiments, 20,000 cells/well were plated in a poly D-lysine-coated 96-well plate. The cells were transiently transfected with a 1:1:1 mass ratio of the dCas9 plasmid, MS2-P65-HSF1 effector plasmid and the sgRNA plasmid targeting the HBG1 gene or an RFP control plasmid. A total of 0.3 μg plasmid DNA was transfected using Lipofectamine 2000 (Life Technologies) according to manufacturer's protocol. Immediately after transfection, the cells were treated with an appropriate dose of the small-molecule inhibitors. A DMSO solution of compound (20 mM) was resuspended in the 10% FBS containing growth media and thoroughly mixedbefore adding to the cells. After 48 h the cells were lysed and 5 μL of the cell lysate was used to perform reverse transcription using the RevertAid RT Reverse Transcription Kit (Thermo Fischer Scientific) as described by Joung J. et al. qPCR reactions were performed to quantify RNA expression using the TaqMan probes (Life Technologies, HBG1/HBG2: Hs00361131_g1, ACTB: Hs01060665_g1) and TaqMan Fast Advanced Master Mix (Life Technologies) in 5 μL multiplexed reactions and 384-well format using the LightCycler 480 Instrument II (Roche). For each sample, four technical replicates were performed. Data were analyzed using the LightCycler 480 software (Roche) by the ΔΔCt method: Ct values for the gene of interest (HBG1) were normalized to Ct values for the housekeeping gene (ACTB), and fold-changes in the expression level of gene of interest were normalized to RFP-transfected control. The data is reported as mean±S.E.M. for technical replicates.

physchem = details: PBS, aqueous buffer
SpCas9:gRNA = molecular target: T2, SpCas9:gRNA (Streptococcus pyogenes serotype M1, UniProt Q99ZW2); assay: In vitro DNA cleavage assay; assay type: biochemical, S. pyogenes; details: SpCas9 5 nM; read-out: apparent IC50
T2 construct: made in house; host or cells: E. coli Rosetta (DE3)
Protocol: In vitro DNA cleavage assay. Inhibition of SpCas9 nuclease activity was assessed in an in vitro DNA cleavage assay with a linearized substrate plasmid DNA. A 94 μL of preformed SpCas9:gRNA (5.3 nM) was incubated with a 3 μL DMSO solution of BRD0539 at the indicated concentrations (13.6-25 μM) for 30 min at room temperature followed by addition of 3 μL of 33.3 nM substrate DNA and incubation for additional 30 min at 37° C. The reaction was quenched by the addition of 2 μL of Proteinase K (Qiagen) for 10 min and then analyzed by 1% agarose gel and visualized by SYBR Gold (Thermofisher). The bands were quantified by Image J and plotted in GraphPad Prism.

SpCas9:DNA interactions = molecular target: T3, SpCas9:DNA interactions (Streptococcus pyogenes serotype M1, UniProt Q99ZW2); assay: Differential scanning fluorimetry, disruption of SpCas9-DNA interaction; assay type: binding, S. pyogenes; details: SpCas9 1 μM, 8PAM DNA 2 μM, BRD0539 5-20 μM
T3 construct: made in house; host or cells: E. coli Rosetta (DE3)
Protocol: Disruption of SpCas9-DNA interaction by BRD0539. Protein melting experiments were performed in a 384-well format using a 6 μL reaction volume in a LightCycler 480 instrument. For DNA binding assay, 1 μM SpCas9 (1 μM) was incubated with indicated amount of 8PAM DNA (0.25, 0.5, 1, and 2 μM) for 15 min in a 20 mM Tris-HCl buffer (150 mM KCl, 5 mM MgCl2, 1 mM DTT, pH 7.5). For inhibition assay, SpCas9 (1 μM) or SpCas9:gRNA (1 μM) was incubated with indicated amount of either BRD0539 or equivalent amount of DMSO for 15 min in a 20 mM Tris-HCl buffer (150 mM KCl, 5 mM MgCl2, 1 mM DTT, pH 7.5). Next, a 8PAM DNA (2 μM) was added to each of the reaction and incubated for additional 15 min followed by addition of 1 μL of 100×SYPRO® Orange (Invitrogen) before running the melting cycle with a temperature gradient of 4.8° C./min. Experiments were performed in duplicate and data were processed using Roche LightCycler® 480 Protein Melting software.

T3 sequence (Q99ZW2 whole entry): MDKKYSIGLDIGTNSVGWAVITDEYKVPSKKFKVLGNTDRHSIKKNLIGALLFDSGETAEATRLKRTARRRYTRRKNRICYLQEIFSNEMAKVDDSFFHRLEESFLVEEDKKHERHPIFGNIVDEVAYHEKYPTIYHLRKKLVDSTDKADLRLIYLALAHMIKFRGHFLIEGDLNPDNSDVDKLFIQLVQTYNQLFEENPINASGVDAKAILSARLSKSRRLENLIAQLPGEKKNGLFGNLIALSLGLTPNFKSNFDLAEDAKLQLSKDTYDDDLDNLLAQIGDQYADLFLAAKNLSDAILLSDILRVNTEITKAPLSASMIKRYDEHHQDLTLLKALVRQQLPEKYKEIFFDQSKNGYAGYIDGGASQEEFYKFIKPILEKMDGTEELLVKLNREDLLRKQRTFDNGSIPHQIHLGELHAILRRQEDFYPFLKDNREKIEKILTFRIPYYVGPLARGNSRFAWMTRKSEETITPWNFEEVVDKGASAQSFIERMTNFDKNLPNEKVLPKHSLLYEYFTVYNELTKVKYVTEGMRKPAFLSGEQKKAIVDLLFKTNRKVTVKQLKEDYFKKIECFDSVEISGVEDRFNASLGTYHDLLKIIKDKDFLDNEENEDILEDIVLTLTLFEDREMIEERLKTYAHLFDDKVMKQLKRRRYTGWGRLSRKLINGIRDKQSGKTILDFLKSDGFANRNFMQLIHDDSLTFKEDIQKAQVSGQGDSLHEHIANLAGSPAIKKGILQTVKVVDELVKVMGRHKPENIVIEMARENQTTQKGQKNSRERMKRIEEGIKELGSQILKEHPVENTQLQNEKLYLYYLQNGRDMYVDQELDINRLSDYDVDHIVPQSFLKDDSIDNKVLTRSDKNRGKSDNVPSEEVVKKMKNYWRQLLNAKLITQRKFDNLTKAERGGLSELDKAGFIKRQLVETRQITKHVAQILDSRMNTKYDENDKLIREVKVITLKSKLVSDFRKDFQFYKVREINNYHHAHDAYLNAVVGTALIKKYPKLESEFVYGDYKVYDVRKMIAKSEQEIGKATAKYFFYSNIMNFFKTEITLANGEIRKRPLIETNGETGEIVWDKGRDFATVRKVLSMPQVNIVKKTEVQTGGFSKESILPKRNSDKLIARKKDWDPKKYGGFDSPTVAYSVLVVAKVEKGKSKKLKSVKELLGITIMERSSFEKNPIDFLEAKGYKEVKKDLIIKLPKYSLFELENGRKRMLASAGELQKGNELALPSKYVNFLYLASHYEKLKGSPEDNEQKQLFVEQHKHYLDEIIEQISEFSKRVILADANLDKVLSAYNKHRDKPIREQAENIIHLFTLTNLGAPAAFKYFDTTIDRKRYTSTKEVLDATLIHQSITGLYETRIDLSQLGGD
T1 sequence (Q99ZW2 whole entry, form open, one chain of several, change not shown): as the sequence (Q99ZW2 whole entry) above
T2 sequence (Q99ZW2 whole entry): as the sequence (Q99ZW2 whole entry) above

| SMILES | inhibition of transcriptional activation [1] | solubility at 24 h (physchem) | IC50 (SpCas9:gRNA) | effect on formation of the DNA-bound state of SpCas9 (in words) (SpCas9:DNA interactions) |
| --- | --- | --- | --- | --- |
| OC[C@H]1Nc2ccc(-c3cccc(F)c3)cc2[C@H]2[C@@H]1CCN2Cc1ccncc1 [BRD7087, ((3aR,4S,9bR)-8-(3-Fluorophenyl)-1-(pyridin-4-ylmethyl)-2,3,3a,4,5,9b-hexahydro-1H-pyrrolo[3,2-c]quinolin-4-yl) methanol] | ~60% | 75 µM (≈ 29.2 µg/mL) | – | – |
| Cc1ccc(S(=O)(=O)N2CC[C@@H]3[C@H](CO)Nc4ccc(-c5ccccc5F)cc4[C@@H]32)cc1 [BRD0539, ((3aR,4R,9bR)-8-(2-fluorophenyl)-1-tosyl-2,3,3a,4,5,9b-hexahydro-1H-pyrrolo[3,2-c]quinolin-4-yl) methanol] | – | – | 22 µM | dose-dependently blocked the formation of the DNA bound state; also recorded: dose-dependently blocked the formation of the DNA-bound state |
